Data reported in patent US11447445B2, “Diabetes and metabolic syndrome treatment with a novel dual modulator of soluble epoxide hydrolase and peroxisome proliferator-activated receptors” (priority 2015, dated 2022).
Values after ≈ are worked out from the molar mass of the structure shown. Like-named read-outs stand apart in the source and are kept apart here.

Assays:
recombinant human sEH = target: T1, recombinant human sEH (Homo sapiens, UniProt P34913); experiment: biochemical
T1 sequence (P34913 1-555): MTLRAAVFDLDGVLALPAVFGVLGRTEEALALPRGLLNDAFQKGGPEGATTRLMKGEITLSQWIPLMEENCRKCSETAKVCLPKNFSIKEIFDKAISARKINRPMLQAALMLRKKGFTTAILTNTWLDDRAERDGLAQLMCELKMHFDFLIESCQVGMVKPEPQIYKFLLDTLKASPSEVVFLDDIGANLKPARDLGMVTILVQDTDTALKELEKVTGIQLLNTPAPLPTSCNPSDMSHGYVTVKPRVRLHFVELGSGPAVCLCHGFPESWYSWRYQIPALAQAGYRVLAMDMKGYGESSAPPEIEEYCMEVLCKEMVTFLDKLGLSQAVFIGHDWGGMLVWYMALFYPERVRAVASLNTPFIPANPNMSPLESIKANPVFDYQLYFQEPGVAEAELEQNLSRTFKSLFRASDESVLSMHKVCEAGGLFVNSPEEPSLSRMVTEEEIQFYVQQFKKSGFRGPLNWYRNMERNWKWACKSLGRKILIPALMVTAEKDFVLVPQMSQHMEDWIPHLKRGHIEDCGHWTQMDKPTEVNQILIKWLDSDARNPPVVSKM

PPARα = target: T2, PPARα (Homo sapiens, UniProt Q07869); type: cell-based; details: for PPARα activation @10 μM: at 10 μM, compared to GW7647 1 μM
T2 construct: expressed in transfected cells; host or cells: COS-7
Description: (§1) COS-7 cells (PPAR) were grown in DMEM high glucose, supplemented with 10% fetal calf serum (FCS), 1% sodium pyruvate (SP) and 1% penicillin/streptomycin (PS) at 37° C. and 5% CO2. Used plasmids for PPAR transactivation assay are shown under supporting informations.
(§2) The day before transfection, COS-7 cells were seeded in 96-well plates with a density of 30,000 cells per well. Transient transfection was carried out using Lipofectamine LTX reagent (Invitrogen, Carlsbad, Calif., USA) according to the manufacturer's protocol with pFR-Luc (Stratagene), pRL-SV40 (Promega) and the Ga14-fusion receptor plasmids (pFA-CMV-hPPAR-LBD) of the respective PPAR subtype. 5 h after transfection, medium was changed to DMEM without phenol red and 10% FCS, supplemented with 1% SP, 1% PS and 1% L-glutamine, now additionally containing 0.1% DMSO and the respective test compound or 0.1% DMSO alone as untreated control. Each concentration was tested in triplicate wells and each experiment was repeated independently at least three times. Following overnight incubation with the test compounds, cells were assayed for luciferase activity using Dual-Glo™ Luciferase Assay System (Promega) according to the manufacturer's protocol. Luminescence was measured with an Infinite m200 luminometer (Tecan Deutschland GmbH). Each concentration of the compounds was tested in triplicate wells. Normalization for transfection efficacy and cell growth was done by division of the firefly luciferase data by renilla luciferase data resulting in relative light units. Activation factors were obtained by dividing by DMSO control. […] All compounds were evaluated by comparison of the achieved maximum effect to that of the reference compound (pioglitazone for PPARγ, GW7647 for PPARa, and L165041 for PPARS each with 1 μM). Data are expressed as mean±SE; n≥3.
(§3) The Gal4-fusion receptor plasmids pFA-CMV-PPARa-LBD, pFA-CMV-PPARS-LBD and pFA-CMV-PPARγ-LBD containing the hinge region and ligand binding domain (LBD) for each of the PPAR subtypes, respectively, were constructed by integrating cDNA fragments obtained from PCR amplification of human monocytes into the SmaI/XbaI cleavage site of the pFA-CMV vector (Stratagene, La Jolla, Calif., USA) and have already been published. […] Frame and sequence of the fusion receptors were verified by sequencing. pFR-Luc (Stratagene) was used as reporter plasmid and pRL-SV40 (Promega) for normalization of transfection efficacy and cell growth.

PPARδ = target: T3, PPARδ (Homo sapiens, UniProt Q03181); experiment: PPAR transactivation assay in COS-7 cells (Gal4-hPPAR-LBD, luciferase); type: cell-based
T3 construct: expressed in transfected cells; host or cells: COS-7
Description: as §1, §2, §3

[1] = Water solubility approximation; type: physicochemical; details: PBS with 0.01% Polysorbate 20, aqueous with cosolvent or surfactant or cyclodextrin, kinetic from dmso stock; PBS pH 7.4, 0.01% Polysorbate 20, 1% DMSO; precipitation at 650 nm; read-out: w.s. (water solubility)
Description: PBS at pH 7.4 with 0.01% Polysorbate 20 (Tween) was combined with 1% of a DMSO solution of the inquired compound in a 96-well transparent flat bottom microtiter plate. Precipitation of the compound was measured at 650 nm with a Tecan Infinite 200 (Tecan Group Ltd, Mannedorf, Switzerland).

[2] = at 10 μM, read-out: sEH inhibition @10 μM (converted)

T2 sequence (Q07869 239-466): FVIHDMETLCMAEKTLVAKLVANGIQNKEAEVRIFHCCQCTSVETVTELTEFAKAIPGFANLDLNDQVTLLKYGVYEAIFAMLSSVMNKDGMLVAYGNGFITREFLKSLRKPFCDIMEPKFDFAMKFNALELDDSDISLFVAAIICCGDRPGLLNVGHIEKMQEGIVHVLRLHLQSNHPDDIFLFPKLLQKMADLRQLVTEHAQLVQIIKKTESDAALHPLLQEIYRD
T3 sequence (Q03181 211-439): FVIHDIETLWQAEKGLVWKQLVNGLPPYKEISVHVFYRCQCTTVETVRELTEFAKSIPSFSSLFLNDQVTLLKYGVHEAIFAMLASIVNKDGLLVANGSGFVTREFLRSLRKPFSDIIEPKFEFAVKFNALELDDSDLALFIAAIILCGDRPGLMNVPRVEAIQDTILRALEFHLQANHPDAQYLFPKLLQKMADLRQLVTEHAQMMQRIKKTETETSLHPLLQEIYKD

CCOC(=O)/C(=C/c1ccc(C(=O)NCc2ccccc2C(F)(F)F)cc1)CC [Compound 1a]
IC50 (recombinant human sEH; read-out: IC50 sEH (converted)): 0.063 ± 0.003 µM
EC50 PPARα (PPARα; i.a. = inactive): i.a.
EC50 PPARδ (PPARδ; i.a. = inactive): i.a.

CC/C(=C\c1ccc(C(=O)NCc2ccccc2C(F)(F)F)cc1)C(=O)O [Compound 1d, (E)-4-[N-((2-Trifluoromethyl)benzyl)benzamide]-alpha-ethylcinnamic acid]
IC50 (recombinant human sEH; read-out: IC50 sEH (converted)): 0.12 ± 0.01 µM
EC50 PPARα (PPARα; i.a. = inactive): i.a.
EC50 PPARδ (PPARδ; i.a. = inactive): i.a.

CCC(Cc1ccc(C(=O)NCc2ccccc2)cc1)C(=O)O (stereo not shown) [Compound 2c, 2-Ethyl 3-[4-(N-benzylbenzamide)]propionic acid]
inhibition at 10 µM (recombinant human sEH; read-out: sEH inhibition @10 μM): 4%
EC50 PPARα (PPARα): n.t. i.a. i.a. n.t.
EC50 PPARδ (PPARδ): n.t. i.a. i.a. n.t.

CCC(Cc1ccc(C(=O)NCc2ccccc2C)cc1)C(=O)O (stereo not shown) [Compound 3c, 2-Ethyl 3-[4-(N-((2-methyl)benzyl)benzamide)]propionic acid]
inhibition at 10 µM (recombinant human sEH; [2]): 25%
EC50 PPARα (PPARα; i.a. = inactive): i.a.
EC50 PPARδ (PPARδ; i.a. = inactive): n.t. i.a. i.a. n.t.

CCC(Cc1ccc(C(=O)NCc2ccccc2Cl)cc1)C(=O)O (stereo not shown) [Compound 4c, 2-Ethyl 3-[4-(N-((2-chloro)benzyl)benzamide)]propionic acid]
inhibition at 10 µM (recombinant human sEH; [2]): 20%
EC50 PPARα (PPARα; i.a. = inactive): n.t. i.a. i.a. n.t.
EC50 PPARδ (PPARδ; i.a. = inactive): n.t. i.a. i.a. n.t.

CCOC(=O)/C(=C/c1ccc(C(=O)NCc2ccccc2OC(F)(F)F)cc1)CC [Compound 6a, Ethyl (E)-4-[N-((2-trifluoromethoxy)benzyl)benzamide]-alpha-ethylcinnamate]
IC50 (recombinant human sEH; read-out: IC50 sEH (converted)): 0.06 ± 0.013 µM
solubility [1]: 10 µM (≈ 4.21 µg/mL)

CCC(Cc1ccc(C(=O)NCc2ccc(F)cc2)cc1)C(=O)O (stereo not shown) [Compound 7c, 2-Ethyl 3-[4-(N-((4-fluoro)benzyl)benzamide)]propionic acid]
inhibition at 10 µM (recombinant human sEH; [2]): 28%
EC50 PPARα (PPARα; i.a. = inactive): n.t. i.a. i.a. n.t.
EC50 PPARδ (PPARδ; i.a. = inactive): n.t. i.a. i.a. n.t.

CC/C(=C\c1ccc(C(=O)NCc2ccc(C(F)(F)F)cc2)cc1)C(=O)O [Compound 8d, (E)-4-[N-((4-Trifluoromethyl)benzyl)benzamide]-alpha-ethylcinnamic acid]
IC50 (recombinant human sEH; read-out: IC50 sEH (converted)): 2.8 µM
solubility [1]: 500 µM (≈ 189 µg/mL)

CCOC(=O)/C(=C/c1ccc(C(=O)NCc2ccc(OC)cc2)cc1)CC [Compound 10a, Ethyl (E)-4-[N-((4-methoxy)benzyl)benzamide]-alpha-ethylcinnamate]
IC50 (recombinant human sEH): 0.55 µM
solubility [1]: 10 µM (≈ 3.67 µg/mL)

CCOC(=O)/C(=C/c1ccc(C(=O)NCc2ccc(Cl)cc2)cc1)CC [Compound 11a, Ethyl (E)-4-[N-((4-chloro)benzyl)benzamide]-alpha-ethylcinnamate]
IC50 (recombinant human sEH; read-out: IC50 sEH (converted)): 3 ± 1.4 µM
solubility [1]: 10 µM (≈ 3.72 µg/mL)

CC/C(=C\c1ccc(C(=O)NCc2ccc(Cl)cc2)cc1)C(=O)O [Compound 11d, (E)-4-[N-((4-Chloro)benzyl)benzamide]-alpha-ethylcinnamic acid]
IC50 (recombinant human sEH; read-out: IC50 sEH (converted)): 5 µM
solubility [1]: 100 µM (≈ 34.4 µg/mL)

CCOC(=O)C(CC)Cc1ccc(C(=O)NCc2ccc(F)cc2C(F)(F)F)cc1 (stereo not shown) [Compound 13b, Ethyl 2-ethyl 3-[4-(N-(4-fluoro(2-trifluoromethyl)benzyl)benzamide)]propanoate]
EC50 PPARα (PPARα; i.a. = inactive): n.t. i.a. i.a. n.t.
EC50 PPARδ (PPARδ; i.a. = inactive): n.t. i.a. i.a. n.t.

CCC(Cc1ccc(C(=O)NCc2ccc(F)cc2C(F)(F)F)cc1)C(=O)O (stereo not shown) [Compound 13c, 2-Ethyl 3-[4-(N-(4-fluoro(2-trifluoromethyl)benzyl)benzamide)]propionic acid]
EC50 PPARα (PPARα; i.a. = inactive): n.t. i.a. i.a. n.t.
EC50 PPARδ (PPARδ; i.a. = inactive): n.t. i.a. i.a. n.t.

CCOC(=O)C(CC)Cc1ccc(C(=O)NCc2ccc(OC)cc2C(F)(F)F)cc1 (stereo not shown) [Compound 14b, Ethyl 2-ethyl 3-[4-(N-(4-methoxy(2-trifluoromethyl)benzyl)benzamide)]propanoate]
PPARα activation @10 μM (PPARα): 22%
EC50 PPARδ (PPARδ; i.a. = inactive): n.t. i.a. i.a. n.t.

CCOC(=O)C(CC)Cc1cccc(C(=O)NCc2ccccc2C(F)(F)F)c1 (stereo not shown) [Compound 15b, Ethyl 2-ethyl 3-[3-(N-((2-trifluoromethyl)benzyl)benzamide)]propanoate]
IC50 (recombinant human sEH; read-out: IC50 sEH (converted)): 0.027 ± 0.002 µM
EC50 PPARα (PPARα; i.a. = inactive): i.a.
EC50 PPARδ (PPARδ; i.a. = inactive): i.a.

CCC(Cc1cccc(C(=O)NCc2ccccc2C(F)(F)F)c1)C(=O)O (stereo not shown) [Compound 15c, 2-Ethyl 3-[3-(N-((2-trifluoromethyl)benzyl)benzamide)]propionic acid]
IC50 (recombinant human sEH; read-out: IC50 sEH (converted)): 0.9 ± 0.08 µM
PPARα activation @10 μM (PPARα): @10 μM (34%)
EC50 PPARδ (PPARδ; i.a. = inactive): i.a.

CCOC(=O)/C(C)=C/c1ccc(C(=O)NCc2ccccc2C(F)(F)F)cc1 [Compound 17a, Ethyl (E)-4-[N-((2-trifluoromethyl)benzyl)benzamide]-alpha-methylcinnamate]
IC50 (recombinant human sEH; read-out: IC50 sEH (converted)): 0.1 ± 0.03 µM
solubility [1]: 10 µM (≈ 3.91 µg/mL)

C/C(=C\c1ccc(C(=O)NCc2ccccc2C(F)(F)F)cc1)C(=O)O [Compound 17d, (E)-4-[N-((2-Trifluoromethyl)benzyl)benzamide]-alpha-methylcinnamic acid]
IC50 (recombinant human sEH; read-out: IC50 sEH (converted)): 4.9 ± 0.06 µM
solubility [1]: 500 µM (≈ 182 µg/mL)

CCC/C(=C\c1ccc(C(=O)NCc2ccccc2C(F)(F)F)cc1)C(=O)OCC [Compound 18a, Ethyl (E)-4-[N-((2-trifluoromethyl)benzyl)benzamide]-alpha-propylcinnamate]
IC50 (recombinant human sEH; read-out: IC50 sEH (converted)): 0.16 ± 0.06 µM
solubility [1]: 10 µM (≈ 4.19 µg/mL)

CCC/C(=C\c1ccc(C(=O)NCc2ccccc2C(F)(F)F)cc1)C(=O)O [Compound 18d, (E)-4-[N-((2-Trifluoromethyl)benzyl)benzamide]-alpha-propylcinnamic acid]
IC50 (recombinant human sEH; read-out: IC50 sEH (converted)): 0.7 ± 0.06 µM
solubility [1]: 5 µM (≈ 1.96 µg/mL)

CCOC(=O)/C(=C/c1ccc(C(=O)NCc2ccccc2C(F)(F)F)cc1)c1ccccc1 [Compound 19a, Ethyl (E)-4-[N-((2-trifluoromethyl)benzyl)benzamide]-alpha-phenylcinnamate]
IC50 (recombinant human sEH; read-out: IC50 sEH (converted)): 0.16 ± 0.03 µM
solubility [1]: 1 µM (≈ 0.453 µg/mL)

O=C(O)/C(=C/c1ccc(C(=O)NCc2ccccc2C(F)(F)F)cc1)c1ccccc1 [Compound 19d, (E)-4-[N-((2-Trifluoromethyl)benzyl)benzamide]-alpha-phenylcinnamic acid]
IC50 (recombinant human sEH; read-out: IC50 sEH (converted)): 0.8 ± 0.01 µM
solubility [1]: 50 µM (≈ 21.3 µg/mL)

O=C(NCc1ccccc1C(F)(F)F)c1ccc(C2CC2C(=O)O)cc1 (stereo not shown) [Compound 22, 2-[4-(N-((2-trifluoromethyl)benzyl)benzamide)]cyclopropan carboxylic acid]
IC50 (recombinant human sEH; read-out: IC50 sEH (converted)): 5.5 ± 0.2 µM
EC50 PPARα (PPARα; i.a. = inactive): i.a.
EC50 PPARδ (PPARδ; i.a. = inactive): i.a.
